Laboratory results: patent US20140121231A1, “PYRANOPYRIDONE INHIBITORS OF TANKYRASE” (Hoffmann-La Roche, Inc., priority 2012, published 2014)
Where a name gives a salt, the structure may show the parent alone.

How the values were obtained:
[1] = target: T1, PARP1 (His6-PARP1, full length) (Homo sapiens, UniProt P09874); test: TR-FRET Binding Assay (Example 71), PARP1; conditions: TR-FRET assay of Example 71 with His6-PARP1
T1 construct: His6-PARP1 (full length) can be substituted for His6-TNKS 1
T1 sequence (P09874 whole entry, species assumed): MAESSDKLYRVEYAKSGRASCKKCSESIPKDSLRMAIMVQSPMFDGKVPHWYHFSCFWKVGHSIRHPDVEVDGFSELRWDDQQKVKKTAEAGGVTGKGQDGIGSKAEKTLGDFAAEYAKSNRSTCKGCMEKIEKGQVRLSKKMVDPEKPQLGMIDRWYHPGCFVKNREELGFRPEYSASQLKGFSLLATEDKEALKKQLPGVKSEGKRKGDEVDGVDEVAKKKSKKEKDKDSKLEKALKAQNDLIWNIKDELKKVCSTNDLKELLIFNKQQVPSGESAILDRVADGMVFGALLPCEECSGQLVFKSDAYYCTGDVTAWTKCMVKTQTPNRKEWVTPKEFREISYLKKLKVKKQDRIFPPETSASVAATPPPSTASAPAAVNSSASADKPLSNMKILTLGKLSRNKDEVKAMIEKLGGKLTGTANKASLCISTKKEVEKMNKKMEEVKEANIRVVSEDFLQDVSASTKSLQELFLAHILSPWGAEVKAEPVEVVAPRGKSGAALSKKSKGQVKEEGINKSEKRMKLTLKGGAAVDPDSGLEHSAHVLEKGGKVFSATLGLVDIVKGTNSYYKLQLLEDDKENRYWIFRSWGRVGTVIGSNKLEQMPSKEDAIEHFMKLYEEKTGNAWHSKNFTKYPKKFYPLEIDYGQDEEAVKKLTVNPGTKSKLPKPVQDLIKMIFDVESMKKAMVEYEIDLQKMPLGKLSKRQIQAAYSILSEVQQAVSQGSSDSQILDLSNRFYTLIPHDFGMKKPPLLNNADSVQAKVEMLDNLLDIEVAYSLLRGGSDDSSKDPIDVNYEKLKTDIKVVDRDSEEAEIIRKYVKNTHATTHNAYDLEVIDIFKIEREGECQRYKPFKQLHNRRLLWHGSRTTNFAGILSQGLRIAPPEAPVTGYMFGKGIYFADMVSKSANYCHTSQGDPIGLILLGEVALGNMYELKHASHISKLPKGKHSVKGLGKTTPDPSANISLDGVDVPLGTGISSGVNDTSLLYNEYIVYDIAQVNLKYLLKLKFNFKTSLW
Protocol: (§1) μHTS-TNKS-IWR2 TR-FRET Binding Assay (10 μL/well in BD1536-well plate, a single point)
Tankyrase 1 (TNKS1): 184.3 μM=5.2 mg/mL His6-TNKS1, MW=28.2 KDa (construct: 1088-1327, 1266M) in 20 mM Tris pH 8, 150 mM NaCl, 10% glycerol, and 0.5 mM TCEP. Alternatively, His6-tankyrase 2 (construct: 934-1166) (His6-TNKS2) or His6-PARP1 (full length) can be substituted for His6-TNKS 1.
(§2) Assay buffer 1a (AB1a) for TNKS dilution: 50 mM Tris, pH 7.4, 100 mM sodium chloride solution, 1 mM magnesium chloride solution, 1 mM DL-dithiothreitol solution, 0.2 mg/mL bovine serum albumin solution, 0.025% NP-40. Assay buffer 1b (AB 1b) for Biotin-IWR2 dilution: 50 mM Tris, pH 7.4, 100 mM sodium chloride solution, 1 mM magnesium chloride solution, 1 mM DL-dithiothreitol solution, 0.2 mg/mL bovine serum albumin solution, 0.05% NP-40 Assay buffer 1c (AB 1c) for compound dilution: 50 mM Tris, pH 7.4, 100 mM sodium chloride solution, 1 mM magnesium chloride solution, 1 mM DL-dithiothreitol solution, 0.2 mg/mL bovine serum albumin solution Assay buffer 2 (AB2) for Eu/APC: 50 mM Tris, pH 7.4, 100 mM sodium chloride solution, 1 mM magnesium chloride solution, 0.2 mg/mL bovine serum albumin solution
Prepare Biotinylated IWR2 stock solution (3.33× stock) for TOTL and compound wells: 200 nM Biotin-IWR2 in 5% DMSO/AB1b buffer
Prepare BLANK well stock solution: 5% DMSO/AB1b buffer Prepare POSITIVE CONTROL well stock solution (3.33× stock): 200 nM XAV939 in 200 nM Biotin-IWR2/5% DMSO/AB1b buffer Prepare TNKS1 stock solution (5× stock): 300 nM TNKS in AB1a buffer. (Alternatively, use TNKS2 or PARP1 stock solutions.) Prepare Eu/APC stock solution (5× stock): 3.5 nM Eu-SA/50 nM APC-His6Ab in AB2 buffer.
(§3) Add 25 μL/well 1.5% DMSO/AB1c buffer in each compound well to the compound concentration at 74 μM in 8.8% DMSO/AB1c buffer or in the 2 μL DMSO CONTROL wells (BLANK, TOTAL and POSITIVE wells) in the compound plate. Transfer 3 μL/well of above solution (solution 1,2,3) to an empty assay plate (BD1536-well plate) as follows: TOTAL and cpd wells: Solution 1 (Biotin-IWR2): BLANK wells: Solution 2 (No Biotin-IWR2): POSITIVE CONTROL wells: Solution 3 (Biotin-IWR2XAV939) Transfer 3 μL/well of the above diluted compound solutions or compound dilution buffer to the above assay plate. Add 2 μL/well of 300 nM TNKS stock solution (4) to every well in the above assay plate. Centrifuge the assay plate at 2100 rpm for 2 min. Incubate the assay plate at 26° C. for 30 minutes. Add 2 μL/well 3.5 nMEu/50 nM APC solution (5) to every well in the above assay plate. Centrifuge the assay plate at 2100 rpm for 2 min. Incubate the assay plate at 26° C. for 60 min. Read the assay plate immediately at excitation wavelength of 330 nm and emission wavelength of 615 and 665 nM in time resolved fluorescence mode.
. Representative compound data for the PARP1 assay is in TABLE 2 (below) Values are in μM.

tankyrase 2 (His6-TNKS2) = target: T2, tankyrase 2 (His6-TNKS2) (Homo sapiens, UniProt Q9H2K2); test: μHTS-TNKS-IWR2 TR-FRET Binding Assay (Example 71), TNKS2; conditions: footnote 1: Tankyrase 1 and 2 inhibition assay in Example 71 (TR-FRET)
T2 construct: His6-tankyrase 2 (construct: 934-1166) (His6-TNKS2)
T2 sequence (Q9H2K2 934-1166): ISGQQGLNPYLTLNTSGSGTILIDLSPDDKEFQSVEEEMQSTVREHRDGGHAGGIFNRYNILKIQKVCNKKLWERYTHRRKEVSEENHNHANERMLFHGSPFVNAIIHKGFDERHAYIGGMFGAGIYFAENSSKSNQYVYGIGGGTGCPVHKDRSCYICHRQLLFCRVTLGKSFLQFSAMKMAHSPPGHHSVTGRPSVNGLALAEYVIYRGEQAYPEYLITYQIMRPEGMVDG
Protocol: as §1
Biotin-4-((1S,2R,6S,7R)-3,5-Dioxo-4-aza-tricyclo[5.2.1.0*2,6*]dec-8-en-4-yl)-N-(4-methyl-quinolin-8-yl)-benzamide (Biotin-IWR2): 10 mM Biotin-IWR2 stock in DMSO, stored at −20° C. Positive control: 10 mM 2-(4-Trifluoromethyl-phenyl)-3,5,7,8-tetrahydro-thiopyrano[4,3-d]pyrimidin-4-one (XAV939) in DMSO, stored at −20° C.
as §2
as §3, with “Transfer” for “Add 25 μL/well 1.5% DMSO/AB1c buffer in each compound well to the compound concentration at 74 μM in 8.8% DMSO/AB1c buffer or in the 2 μL DMSO CONTROL wells (BLANK, TOTAL and POSITIVE wells) in the compound plate. Transfer”, “min.” for “min. Read the assay plate immediately at excitation wavelength of 330 nm and emission wavelength of 615 and 665 nM in time resolved fluorescence mode.”

Tankyrase 1 (TNKS1) = target: T3, Tankyrase 1 (TNKS1) (Homo sapiens, UniProt O95271); test: μHTS-TNKS-IWR2 TR-FRET Binding Assay (Example 71), TNKS1
T3 construct: His6-TNKS1, MW=28.2 KDa (construct: 1088-1327, 1266M)
T3 sequence (O95271 1088-1327): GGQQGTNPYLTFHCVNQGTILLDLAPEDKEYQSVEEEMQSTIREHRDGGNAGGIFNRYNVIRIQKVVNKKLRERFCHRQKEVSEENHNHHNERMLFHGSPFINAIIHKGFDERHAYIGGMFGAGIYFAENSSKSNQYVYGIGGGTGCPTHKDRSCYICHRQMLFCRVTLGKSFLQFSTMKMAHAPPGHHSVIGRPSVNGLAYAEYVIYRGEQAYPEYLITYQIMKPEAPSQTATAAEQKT
Protocol: as §1, §2
as §3, with “Transfer” for “Add 25 μL/well 1.5% DMSO/AB1c buffer in each compound well to the compound concentration at 74 μM in 8.8% DMSO/AB1c buffer or in the 2 μL DMSO CONTROL wells (BLANK, TOTAL and POSITIVE wells) in the compound plate. Transfer”, “min.” for “min. Read the assay plate immediately at excitation wavelength of 330 nm and emission wavelength of 615 and 665 nM in time resolved fluorescence mode.”

| Structure (SMILES) | IC50 [1] | IC50 (tankyrase 2 (His6-TNKS2)) | IC50 (Tankyrase 1 (TNKS1)) |
| --- | --- | --- | --- |
| CC1(C(=O)N2CCC(C3Cc4[nH]c(=O)c5cccnc5c4CO3)CC2)CC1 (racemic) [Compound I-57, rac-2-[1-(1-methyl-cyclopropanecarbonyl)-piperidin-4-yl]-1,2,4,10-tetrahydro-3-oxa-5,10-diaza-phenanthren-9-one] | 0.0386 µM | 0.0455 µM | 0.0402 µM |
| Cc1cncc2c(=O)[nH]c3c(c12)COC(C(C)(C)C)C3 (racemic) [Compound I-58, rac-7-tert-Butyl-4-methyl-5,7,8,9-tetrahydro-6-oxa-2,9-diaza-phenanthren-10-one] | 0.328 µM | 0.0257 µM | 0.0259 µM |
| Cc1cccc2c(=O)[nH]c3c(c12)COC(C1CCOCC1)C3 (racemic) [Compound I-60, rac-5-Methyl-2-(tetrahydro-pyran-4-yl)-1,2,4,10-tetrahydro-3-oxa-10-aza-phenanthren-9-one] | 0.0797 µM | 0.0179 µM | 0.0241 µM |
| Cc1cccc2c(=O)[nH]c3c(c12)COC(C1CCN(C(=O)C2(C)CC2)CC1)C3 (racemic) [Compound I-61, rac-5-Methyl-2-[1-(1-methyl-cyclopropanecarbonyl)-piperidin-4-yl]-1,2,4,10-tetrahydro-3-oxa-10-aza-phenanthren-9-one] | 0.0259 µM | 0.021 µM | 0.0175 µM |
| Cc1cccc2c(=O)[nH]c3c(c12)COC(C1CCN(C(=O)OC(C)(C)C)CC1)C3 (racemic) [Compound I-62, rac-4-(5-Methyl-9-oxo-1,4,9,10-tetrahydro-2H-3-oxa-10-aza-phenanthren-2-yl)-piperidine-1-carboxylic acid tert-butyl ester] | 0.0381 µM | 0.0237 µM | 0.0265 µM |
| Cc1cccc2c(=O)[nH]c3c(c12)COC(C1CCN(C(=O)C2CC2)CC1)C3 (racemic) [Compound I-63, rac-2-(1-Cyclopropanecarbonyl-piperidin-4-yl)-5-methyl-1,2,4,10-tetrahydro-3-oxa-10-aza-phenanthren-9-one] | 0.0526 µM | 0.0269 µM | 0.0283 µM |
| Cc1cccc2c(=O)[nH]c3c(c12)COC(C(C)(C)O)C3 (racemic) [Compound I-64, rac-2-(1-Hydroxy-1-methyl-ethyl)-5-methyl-1,2,4,10-tetrahydro-3-oxa-10-aza-phenanthren-9-one] | 0.0441 µM | 0.0367 µM | 0.032 µM |
| CC1(C2Cc3[nH]c(=O)c4ccccc4c3CO2)COC1 (racemic) [Compound I-65, rac-2-(3-Methyl-oxetan-3-yl)-1,2,4,10-tetrahydro-3-oxa-10-aza-phenanthren-9-one] | 0.043 µM | 0.101 µM | 0.0814 µM |
| O=c1[nH]c2c(c3ccccc13)CO[C@H](C1CCCC1)C2 (single isomer, unassigned) [Compound I-11] | 0.0371 µM | 0.102 µM | 0.0315 µM |
| O=c1[nH]c2c(c3ccccc13)CO[C@@H](C1CCCC1)C2 (single isomer, unassigned) [Compound I-12] | 0.0306 µM | 0.0194 µM | 0.016 µM |
| CC(C)(C)OC(=O)N1CCC([C@@H]2Cc3[nH]c(=O)c4ccccc4c3CO2)CC1 (single isomer, unassigned) [Compound I-54] | 0.115 µM | 0.0257 µM | 0.0214 µM |
| CC(C)(C)OC(=O)N1CCC([C@H]2Cc3[nH]c(=O)c4ccccc4c3CO2)CC1 (single isomer, unassigned) [Compound I-55] | 0.125 µM | 0.0992 µM | 0.0432 µM |
| O=c1[nH]c2c(c3ccccc13)COCC2 [Compound I-3, 1,2,4,10-Tetrahydro-3-oxa-10-aza-phenanthren-9-one] | 0.281 µM | 0.636 µM | 0.421 µM |
| O=c1[nH]c2c(c3ccccc13)COC1(CCCC1)C2 [Compound I-9, 1,5′-Dihydrospiro[cyclopentane-1,3′-pyrano[4,3-c]isoquinolin]-6′(4′H)-one] | 2.27 µM | 0.144 µM | 0.0729 µM |
| CCC(C)C1Cc2[nH]c(=O)c3ccccc3c2CO1 (stereo not drawn) [Compound I-18, 2-sec-Butyl-1,2,4,10-tetrahydro-3-oxa-10-aza-phenanthren-9-one] | > 50 µM | 0.0883 µM | 0.0568 µM |
| CC(C)(C)OC(=O)N1CCC(C2Cc3[nH]c(=O)c4ccccc4c3CO2)C1 (stereo not drawn) [Compound I-35, 3-(9-Oxo-1,4,9,10-tetrahydro-2H-3-oxa-10-aza-phenanthren-2-yl)-pyrrolidine-1-carboxylic acid tert-butyl ester] | 0.0699 µM | 0.056 µM | 0.0379 µM |
| O=c1[nH]c2c(c3ccccc13)COC(C1CCNC1)C2 (stereo not drawn) [Compound I-36, 2-Pyrrolidin-3-yl-1,2,4,10-tetrahydro-3-oxa-10-aza-phenanthren-9-one, hydrochloride] | 0.0277 µM | 0.246 µM | 0.168 µM |
| CC(=O)N1CCC(C2Cc3[nH]c(=O)c4ccccc4c3CO2)C1 (stereo not drawn) [Compound I-37, 2-(1-Acetyl-pyrrolidin-3-yl)-1,2,4,10-tetrahydro-3-oxa-10-aza-phenanthren-9-one] | 0.104 µM | 0.0674 µM | 0.0499 µM |
| O=C(C1CC1)N1CCC(C2Cc3[nH]c(=O)c4ccccc4c3CO2)C1 (stereo not drawn) [Compound I-44, 2-(1-Cyclopropanecarbonyl-pyrrolidin-3-yl)-1,2,4,10-tetrahydro-3-oxa-10-aza-phenanthren-9-one] | 0.0673 µM | 0.0656 µM | 0.0422 µM |
| CC1(C(=O)N2CCC(C3Cc4[nH]c(=O)c5ccccc5c4CO3)C2)CC1 (stereo not drawn) [Compound I-45, 2-[1-(1-Methyl-cyclopropanecarbonyl)-pyrrolidin-3-yl]-1,2,4,10-tetrahydro-3-oxa-10-aza-phenanthren-9-one] | 0.0783 µM | 0.0867 µM | 0.0647 µM |
| CC(C)(C)OC(=O)N1CCC(C2Cc3[nH]c(=O)c4cccnc4c3CO2)CC1 (stereo not drawn) [Compound I-51, tert-butyl 4-(5-oxo-6 7 8 10-tetrahydropyrano[4 3-h][l 6]naphthyridin-8-yl)piperidine-1-carboxylate] | 0.363 µM | 0.0498 µM | 0.039 µM |
| Cc1cccc2c(=O)[nH]c3c(c12)COC(C(C)(C)COCc1ccccc1)C3 (stereo not drawn) [Compound I-68, 3-(2-benzyloxy-1 1-dimethyl-ethyl)-10-methyl-1 3 4 5-tetrahydropyrano[4 3-c]isoquinolin-6-one] | 0.026 µM | 0.0287 µM | 0.028 µM |
